Measurements published in ChEMBL document CHEMBL1201862, “PubChem BioAssay data set” (2004).
Calls of active or inactive are those of the source.

Legend:
Escherichia coli = assay: microbe, parasite or virus in culture
[1] = target: T1, High affinity choline transporter 1 (Homo sapiens, UniProt Q9GZV3); assay: human choline transporter blockers, potency – cell-based, 5-point CRC, membrane potential dye, dose response (AID 504840); assay type: functional
T1 sequence (Q9GZV3 whole entry): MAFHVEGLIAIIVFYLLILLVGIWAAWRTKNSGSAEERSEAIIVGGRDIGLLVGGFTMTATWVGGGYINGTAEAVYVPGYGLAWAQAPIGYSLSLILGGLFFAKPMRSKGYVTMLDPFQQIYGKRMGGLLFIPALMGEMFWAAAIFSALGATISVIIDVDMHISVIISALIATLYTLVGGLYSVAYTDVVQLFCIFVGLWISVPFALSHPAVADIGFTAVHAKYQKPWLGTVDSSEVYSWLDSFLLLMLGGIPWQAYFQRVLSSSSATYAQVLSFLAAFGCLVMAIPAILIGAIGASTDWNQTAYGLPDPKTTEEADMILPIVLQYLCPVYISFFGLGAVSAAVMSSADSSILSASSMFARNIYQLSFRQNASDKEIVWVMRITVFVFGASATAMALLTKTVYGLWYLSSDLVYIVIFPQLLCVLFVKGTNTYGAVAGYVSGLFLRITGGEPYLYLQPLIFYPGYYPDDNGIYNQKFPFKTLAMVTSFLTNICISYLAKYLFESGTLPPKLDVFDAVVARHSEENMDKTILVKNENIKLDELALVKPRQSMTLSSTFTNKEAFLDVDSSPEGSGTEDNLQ

[2] = target: T1, High affinity choline transporter 1; assay: human choline transporter blockers, potency – cell-based, 10-point CRC, membrane potential dye, dose response (AID 588401); assay type: functional;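 also: membrane potential dye fluorescence of choline-evoked depolarization via CHT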
[3] = viability loss in HEK293T cells – cell-based, cherry-picks, cytotoxicity control for HIV Vif inhibitor project, dose response (AID 652208); assay type: functional
[4] = tested on: Streptococcus sp. 'group A'; assay: Streptococcus pyogenes SK(-)GAS viability under kanamycin – luminescence, BacTiterGlo, confirmation, counter-screen for streptokinase expression inhibitor project, dose response (AID 1900); assay type: functional, organism-based
BJ [5] = assay: BJ-TERT fibroblast viability loss – cell-based, RAS-independent, luminescence, dose response (AID 1933); assay type: functional; conditions: Homo sapiens
BJ [6] = assay: cells; assay type: functional, cell-based; conditions: Homo sapiens
[7] = microbe, parasite or virus in culture; assay type: functional; conditions: Mycobacterium tuberculosis
BJ [8] = assay: BJ-TERT-LT-ST fibroblast viability loss – cell-based, RAS-independent, luminescence, dose response (AID 1935); assay type: functional; conditions: Homo sapiens;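 also: BJ fibroblasts immortalized with TERT plus LT and ST oncogenes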
[9] = DRD fibroblast viability loss – cell-based, non-viral oncogenic, luminescence, dose response (AID 1934); assay type: functional; conditions: Homo sapiens
Streptococcus = assay: GAS UMAA2166 growth inhibition – luminescence, BacTiterGlo, counter-screen for streptokinase expression inhibitor project, dose response (AID 1915); assay type: functional, organism-based;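 also: potency for reduction of bacterial viability or growth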
BJ [10] = assay: growth inhibition of engineered Ras-driven BJ cells – cell-based, alamar blue fluorescence, cherrypicked samples, dose response (AID 2631); assay type: functional; conditions: Homo sapiens;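 also: confirmatory dose-response assay in RAS-dependent BJ fibroblasts engineered with TERT, LT and ST, with cytotoxicity read by fluorescence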
[11] = luciferase reporter signal suppression in cells – H4 neuroglioma cells, luminescence, dose response (AID 1990); assay type: functional, cell-based
[12] = Luminescence Cell-Based Dose Response HTS to Identify Inhibitors of 5'UTR Stem-Loop Driven Prion Protein mRNA Translation in H4 Neuroglioblastoma Cells. [Related pubchem assays: 1827 (Project Summary), 1813 (Primary HTS)]; assay type: functional
[13] = alpha-synuclein stem-loop luciferase translation blockers – H4 neuroglioma cells, luminescence, confirmation (AID 1988); assay type: functional, cell-based
Cysteine protease ATG4B = target: T2, Cysteine protease ATG4B (Homo sapiens, UniProt Q9Y4P1); assay type: functional;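 also: Fluorescence-based dose-response confirmation assay measuring inhibition of ATG4B activity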
T2 sequence (Q9Y4P1 whole entry): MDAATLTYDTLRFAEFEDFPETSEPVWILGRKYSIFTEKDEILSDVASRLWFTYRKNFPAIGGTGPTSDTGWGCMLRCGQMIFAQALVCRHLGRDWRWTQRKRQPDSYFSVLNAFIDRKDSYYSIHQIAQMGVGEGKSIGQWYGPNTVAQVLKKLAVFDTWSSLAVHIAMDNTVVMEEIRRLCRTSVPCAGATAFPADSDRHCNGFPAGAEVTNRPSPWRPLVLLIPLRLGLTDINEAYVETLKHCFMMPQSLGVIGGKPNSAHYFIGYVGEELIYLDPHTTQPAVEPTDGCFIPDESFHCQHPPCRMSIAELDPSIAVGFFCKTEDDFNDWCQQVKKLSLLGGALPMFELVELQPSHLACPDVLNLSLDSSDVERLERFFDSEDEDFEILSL

Phospholipase A2 = Phospholipase A2 (Homo sapiens, UniProt P04054); assay type: functional;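 also: confirmatory dose-response counterscreen on phospholipase A2, testing hits that came from an ultra-high-throughput screen for ATG4B inhibitors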
Chain of Phospholipase A2 (P04054 whole entry): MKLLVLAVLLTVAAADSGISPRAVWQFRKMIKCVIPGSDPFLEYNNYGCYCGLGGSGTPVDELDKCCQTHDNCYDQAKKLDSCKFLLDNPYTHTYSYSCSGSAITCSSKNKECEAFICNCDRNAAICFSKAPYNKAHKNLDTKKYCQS

Protein Tat = target: T3, Protein Tat (Human immunodeficiency virus type 1 group M subtype B (isolate HXB2)(HIV-1), UniProt P04608); assay type: functional;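 also: tat binding to TAR RNA read out by fluorescence polarization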
T3 sequence (P04608 whole entry): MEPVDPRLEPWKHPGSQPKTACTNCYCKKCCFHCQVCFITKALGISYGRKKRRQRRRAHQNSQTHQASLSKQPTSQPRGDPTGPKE

[14] = HIV-1 Vif–A3G interaction blockers – biochemical, TR-FRET, GST-Vif 1-94, biotin-A3G peptide, dose response retest, primary screen (AID 1117319); assay type: functional;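 also: TR-FRET signal of purified GST-Vif binding a biotinylated A3G peptide; inhibitors lower the FRET signal by blocking Vif and A3G binding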
HEK293 = assay: cells; assay type: functional, cell-based; conditions: Homo sapiens
[15] = target: T4, Nuclear receptor subfamily 0 group B member 1 (Homo sapiens, UniProt P51843); assay: Luminescence-based cell-based high throughput dose response assay for inhibitors of the orphan nuclear receptor subfamily 0, group B, member 1 (DAX1; NR0B1). [Related pubchem assays (depositor defined):AID504766, AID504790]; assay type: functional
T4 sequence (P51843 whole entry): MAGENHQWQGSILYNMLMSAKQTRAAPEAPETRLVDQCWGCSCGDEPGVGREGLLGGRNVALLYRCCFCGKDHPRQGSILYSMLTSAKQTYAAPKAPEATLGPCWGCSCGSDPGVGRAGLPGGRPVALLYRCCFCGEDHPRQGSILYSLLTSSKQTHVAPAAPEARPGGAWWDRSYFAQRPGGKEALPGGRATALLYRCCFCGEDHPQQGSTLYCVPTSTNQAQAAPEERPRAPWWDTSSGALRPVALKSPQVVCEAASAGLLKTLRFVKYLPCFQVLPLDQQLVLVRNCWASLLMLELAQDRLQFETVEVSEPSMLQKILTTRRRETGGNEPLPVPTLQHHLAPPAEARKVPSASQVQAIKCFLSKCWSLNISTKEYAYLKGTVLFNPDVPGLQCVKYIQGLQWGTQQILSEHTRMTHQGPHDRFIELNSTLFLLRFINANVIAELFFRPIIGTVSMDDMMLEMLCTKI

Compound: O=C(Nc1cc(S(=O)(=O)N2CCOCC2)ccc1N1CCCC1)c1ccc(Cl)cc1
- AC50 (Escherichia coli): 25.2 µM (active)

Compound: COc1ccc(-c2cc(=O)c3cc(O)ccc3o2)cc1
- IC50 [1]: 4.38 µM (active)
- IC50 [2]: 3.64 µM (active)

Compound: Cc1ccc(NS(=O)(=O)c2cccc(C(=O)NCC(c3ccco3)N3CCCCC3)c2)cc1 (centres undefined)
- IC50 [1]: 9.8 µM (active)
- IC50 [2]: 5.39 µM (active)

Compound: CCc1ccc2[nH]c3nc(SCC(=O)NNC(=O)c4ccc(C(C)(C)C)cc4)nnc3c2c1
- AC50 [3]: 28.6 µM (active)

Compound: Cc1nc(N)nc(N)c1CCCc1ccc(Cl)c(Cl)c1
- EC50 [4]: 1.03 µM (active)
- EC50 (BJ [5]): 17 µM (active)
- EC50 (BJ [6]): 1.36 µM (active)
- CC50 [7]: 4.07 µM (active)
- EC50 (BJ [8]): > 150 µM (not active)
- EC50 [9]: 3.05 µM (active)
- EC50 (Streptococcus): 4.01 µM (active)
- EC50 (BJ [10]): > 133 µM (inactive)

Compound: COc1ccc(-c2ccc(C#N)c(SCC(=O)Nc3sc4c(c3C#N)CCC4)n2)cc1OC
- EC50 [11]: 13.9 µM (active)
- EC50 [12]: > 120 µM (not active)
- EC50 [13]: 11.1 µM (active)
- IC50 (Cysteine protease ATG4B): 5.44 µM (active)
- IC50 (Phospholipase A2): 4.06 µM (active)
- IC50 (Protein Tat): > 100 µM (active)
- IC50 [14]: > 100 µM (active)

Compound: O=C(/C=C/c1ccccc1)Nc1nc[nH]n1
- AC50 [3]: 23.6 µM (active)

Compound: O=C(CCc1ccccc1)NC(=S)Nc1ccccc1Br
- IC50 (HEK293): > 67.5 µM (inactive)
- IC50 [15]: > 67.5 µM (inactive)
